Experimental data taken from the supplement of paper PMC10307832.

How the values were obtained:
Experiment in all cases: relative viability (nuclei count vs DMSO), 5 days (fraction); higher = more cells survive
GSK-J4 + Trametinib = compound: CCOC(=O)CCNc1cc(N2CCc3ccccc3CC2)nc(-c2ccccn2)n1 [GSK-J4] + CC(=O)Nc1cccc(-n2c(=O)n(C3CC3)c(=O)c3c(Nc4ccc(I)cc4F)n(C)c(=O)c(C)c32)c1 [Trametinib] (partner 0.02 µM)
Summary of the method: (§1)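 For relative viability, nuclei counts in treated wells were divided by those in vehicle wells. Lung cancer cell lines had been pin-tool dosed in 1536-well plates the day after seeding and cultured for 5 days, then fixed and stained in one step (final 0.05% Triton X-100, 1% formaldehyde, 1 ug/ml Hoechst) and imaged at 4×. Doses were one drug alone or a fixed anchor-drug dose plus five library-drug doses (not always all listed) in √10 steps, and values are duplicate-plate medians.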

GSK-J4 + AZD7762 = compound: CCOC(=O)CCNc1cc(N2CCc3ccccc3CC2)nc(-c2ccccn2)n1 [GSK-J4] + NC(=O)Nc1cc(-c2cccc(F)c2)sc1C(=O)N[C@H]1CCCNC1 [AZD7762] (partner 0.2 µM)
Summary of the method: as §1

AZ3146 + Phenformin = compound: CN1CCC(CC1)OC2=CC(=C(C=C2)NC3=NC=C4C(=N3)N(C(=O)N4C)C5CCCC5)OC [AZ3146] + N=C(N)NC(=N)NCCc1ccccc1 [Phenformin] (partner 250 µM)
Summary of the method: as §1

GSK-J4 + Pictilisib = compound: CCOC(=O)CCNc1cc(N2CCc3ccccc3CC2)nc(-c2ccccn2)n1 [GSK-J4] + CS(=O)(=O)N1CCN(Cc2cc3nc(-c4cccc5[nH]ncc45)nc(N4CCOCC4)c3s2)CC1 [Pictilisib] (partner 1 µM)
Summary of the method: as §1

Cell Line | relative viability (GSK-J4 + Trametinib; first compound 0.5 µM) | relative viability (GSK-J4 + Trametinib; first compound 1.581 µM) | relative viability (GSK-J4 + Trametinib; first compound 5 µM) | relative viability (GSK-J4 + Trametinib; first compound 15.81 µM) | relative viability (GSK-J4 + Trametinib; first compound 50 µM) | relative viability (GSK-J4 + AZD7762; first compound 0.5 µM) | relative viability (GSK-J4 + AZD7762; first compound 1.581 µM) | relative viability (GSK-J4 + AZD7762; first compound 5 µM) | relative viability (GSK-J4 + AZD7762; first compound 15.81 µM) | relative viability (GSK-J4 + AZD7762; first compound 50 µM) | relative viability (AZ3146 + Phenformin; first compound 0.08 µM) | relative viability (AZ3146 + Phenformin; first compound 0.253 µM) | relative viability (AZ3146 + Phenformin; first compound 0.8 µM) | relative viability (AZ3146 + Phenformin; first compound 2.53 µM) | relative viability (AZ3146 + Phenformin; first compound 8 µM) | relative viability (GSK-J4 + Pictilisib; first compound 5 µM) | relative viability (GSK-J4 + Pictilisib; first compound 15.81 µM) | relative viability (GSK-J4 + Pictilisib; first compound 50 µM) | relative viability (GSK-J4 + Pictilisib; first compound 0.5 µM) | relative viability (GSK-J4 + Pictilisib; first compound 1.581 µM)
LCLC-97TM1 | 0.182 | 0.155 | 0.168 | 0.128 | 0.156 | 0.197 | 0.23 | 0.384 | 0.209 | 0.337 | 0.386 | 0.411 | 0.326 | 0.433 | 0.448 | 0.399 | 0.249 | 0.15 | – | –
NCI-H1993 | 0.514 | 0.504 | 0.497 | 0.544 | 0.532 | 0.805 | 0.683 | 1.04 | 0.604 | 0.435 | 0.513 | 0.509 | 0.499 | 0.557 | 0.45 | 0.807 | 0.684 | 0.725 | 0.834 | 0.845
NCI-H1793 | 0.432 | 0.375 | 0.336 | 0.28 | 0.228 | 0.595 | 0.324 | 0.215 | 0.151 | 0.156 | 0.473 | 0.286 | 0.339 | 0.35 | 0.213 | 0.54 | 0.364 | 0.337 | 0.249 | 0.171
NCI-H2087 | 0.189 | 0.171 | 0.257 | 0.169 | 0.222 | 1.09 | 1.25 | 1.05 | 1.23 | 0.8 | 0.382 | 0.54 | 0.406 | 0.46 | 0.471 | – | 0.999 | 0.424 | 0.816 | 0.341
NCI-H1355 | 0.371 | 0.4 | 0.486 | 0.396 | 0.327 | 0.731 | 0.693 | 0.516 | 0.532 | 0.584 | 0.446 | 0.444 | 0.437 | 0.465 | 0.404 | 0.397 | 0.418 | 0.478 | 0.521 | 0.302
RERF-LC-KJ | 0.85 | 0.845 | 0.931 | 0.708 | 0.66 | 0.916 | 0.825 | 0.812 | 0.821 | 0.672 | 0.395 | 0.44 | 0.433 | 0.432 | 0.384 | 0.639 | 0.635 | 0.434 | 0.465 | 0.459
NCI-H727 | 0.405 | 0.393 | 0.378 | 0.385 | 0.331 | 0.425 | 0.54 | 0.728 | 0.585 | 0.341 | 0.456 | 0.545 | 0.341 | 0.61 | 0.417 | 0.691 | 0.427 | 0.18 | 0.379 | –
NCI-H1734 | 0.633 | 0.524 | 0.627 | 0.58 | 0.545 | 0.513 | 0.767 | 0.333 | 0.513 | 0.423 | 0.393 | 0.373 | 0.406 | 0.426 | 0.376 | 0.401 | 0.426 | 0.341 | 0.464 | 0.508
NCI-H2126 | 0.567 | 0.575 | 0.566 | 0.503 | 0.503 | 1 | 0.928 | 1.05 | 0.891 | 0.89 | 0.459 | 0.508 | 0.52 | 0.538 | 0.452 | 0.633 | 0.519 | 0.41 | 0.517 | 0.446
NCI-H1792 | 0.523 | 0.44 | 0.468 | 0.39 | 0.38 | 0.771 | 0.534 | 0.325 | 0.674 | 0.457 | 0.191 | – | 0.318 | 0.267 | 0.121 | 0.254 | 0.244 | 0.263 | 0.306 | 0.25
NCI-H23 | 0.354 | 0.367 | 0.393 | 0.285 | 0.34 | 0.206 | 0.388 | 0.254 | 0.239 | 0.265 | 0.823 | 0.805 | 0.832 | 0.789 | 0.8 | 0.545 | 0.49 | 0.319 | 0.535 | –
EPLC-272H | 0.328 | 0.251 | 0.325 | 0.272 | 0.232 | 0.206 | 0.23 | 0.162 | 0.138 | 0.147 | – | 0.247 | 0.288 | 0.345 | 0.317 | 0.35 | 0.275 | 0.219 | 0.428 | –
NCI-H647 | 0.521 | 0.393 | 0.357 | 0.445 | 0.499 | 0.596 | 0.431 | 0.271 | 0.386 | 0.44 | 0.394 | 0.649 | 0.59 | 0.465 | 0.32 | 0.272 | 0.426 | 0.353 | 0.576 | 0.479
NCI-H1975 | 0.356 | 0.262 | 0.296 | 0.329 | 0.264 | 0.783 | 0.633 | – | 0.63 | 0.858 | 0.406 | 0.387 | 0.386 | 0.401 | 0.301 | – | 0.344 | 0.402 | 0.279 | 0.31
BEN | 1.1 | 0.883 | 0.88 | 0.896 | 0.917 | 0.694 | 0.634 | 0.441 | 0.567 | 0.426 | – | 0.291 | 0.248 | 0.268 | 0.242 | – | 0.539 | 0.33 | 0.666 | 0.471
NCI-H1437 | 0.478 | 0.444 | 0.553 | 0.491 | 0.29 | 1.1 | 0.898 | 1.02 | 1.07 | 0.595 | 0.264 | 0.34 | 0.312 | 0.295 | 0.313 | 0.385 | 0.435 | 0.165 | 0.454 | 0.352
